Results published in patent US12377095B2, “Use of ligustrazine nitrone derivatives in treatment and prevention of diabetic complication diseases” (QINGDAO HAILAN PHARMACEUTICALS CO., LTD., priority 2019, dated 2025).

Experiments:
db/db mice = test: Electron microscopy of kidney tissue in db/db mice; format: in vivo, mouse
Description: db/db mice are congenital obese type 2 DKD mice with spontaneous mutations in the leptin receptor (Leptin receptor, Lepr) due to a point mutation in the leptin receptor gene GT located on chromosome 4. The course of polyphagia, polyuria, diabetes and hyperglycemia is similar to that of humans, and it is currently the most widely used type 2 spontaneous animal model of DKD. The db/db mice have a series of complications with the aggravation of diabetes. The main pathological changes of renal tissue are the expansion of the glomerular mesangial interstitium, the thickening of the glomerular basement membrane, and the excessive accumulation of extracellular matrix. However, the glomerular mesangium of db/db mice changes relatively slowly, and the glomerular mesangium will not be dissolved or nodular glomerulosclerosis, and there is no progressive renal insufficiency.
Six-week-old db/db mice were purchased, and start the administration after adaptive feeding for 1 week (i.e., 7-week-old). TBN is administered twice a day (fixed by starting from 9:00-10:00 am and 3:00-4:00 pm, with an interval of 6 hours), and the positive control drug Losartan was administered once a day (fixed at 9:00-10:00 am) for 6 weeks.
After the mice were executed, the renal cortex was quickly taken with sharp blade (performed on ice); fixed with 2.5% glutaraldehyde (pH 7.4) at 4° C. for 6 h; then fixed for 2 h in a stationary liquid having 1:1 of 0.2 mmol/L PBS and 2% osmic acid, and dehydrated with gradient acetone at 4° C., 10 min for each of 50%, 70%, 90% acetone, then dehydrated with 100% acetone at room temperature twice, each time 15 min; in 1:1 acetone and Epon812 epoxy resin embedded mixed liquid, soaked at room temperature for 30 min; then dipped through the pure furnishings overnight, the embedding agent was made enveloping into tissue blocks completely to replace the dehydrating agent; the samples were embedded in the embedder for ultra-thin slicing, placed at 35° C. for 12 h; placed at 45° C. for 12 h; placed at 60° C. for 48 h; placed in a 37° C. oven for 36 h, in a 60° C. oven for 36 h; 1.5 μm semi-slice was prepared with an ultra-thin slicer; positioning under optical microscope, a trapeter having a top area of about 1 mm^2 was shaped to prepare 60-70 nm thick ultra-thin slices; dyed in dark with acetate hydroxide liquid for 10 min, and dyed in lead-stained citrate for 10 min.

STZ-induced SHR rats [1] = test: HE kidney morphology of STZ-induced SHR rats; format: in vivo, rat; conditions: 60 mg/kg
Method: (§1) 6 W-age SHR rats were abstained from food but not water for 12 h before injection, and then intraperitoneally injected with 55 mg/kg STZ after weighing (STZ required for fast injection, to be completed within 10 min), then put back to the cage to ensure that rat has sufficient drinking water in the period of 24 h, and the rats of normal control group were injected with citric acid buffer (pH 4.5) in the same volume. After 3 weeks of STZ injection, retinal venous blood was collected, and blood glucose ≥16.7 mmol/L was used as a molding standard, where the model of SHR rats that meet the above criteria is considered successful.
(§2) The route of administration is intragastrical, TBN is administered twice a day (fixed at 9:00-10:00 am and 3:00-4:00 pm), and Losartan is administered once a day (fixed at 9:00-10:00 am), continuously for 6 weeks.
(§3) The process is the same as in Example 9.

STZ-induced SHR rats [2] = test: PAS staining, glomerular hardening of STZ-induced SHR rats; format: in vivo, rat; conditions: 60 mg/kg
Method: as §1, §2, §3

STZ-induced SHR rats [3] = test: Body weight of STZ-induced SHR rats; format: in vivo, rat; conditions: 60 mg/kg twice/day, 6 weeks
Method: as §1, §2
The general situation and weight changes are observed after the establishment of the rat model, and the general situation includes the activity of rats, mental state, hair color, diet, drinking water and urine volume, etc., and water consumption and feed weights were recorded each week.

STZ-induced DKD rats = test: Serum erythropoietin (ELISA) in STZ-induced DKD rats; format: in vivo, rat
Method: Before the injection, the rats were fasted for 12 hours without water. After weighing, the rats were injected with 55 mg/kg STZ intraperitoneally (STZ needs to be injected quickly, and the injection was completed within 10 minutes), and then returned to the cage to ensure that the rats had sufficient drinking water for 24 hours. Rats were injected with an equal volume of citrate buffer (pH 4.5). After STZ injection for 3 weeks, blood was collected from the tail vein, and blood glucose ≥16.7 mmol/L was used as the criteria for the standard of the rats.
The route of administration is intragastric administration. TBN was administered twice a day (fixed at 9:00-10:00 am and 3:00-4:00 pm), and Losartan was administered once a day (fixed at 9:00-10:00 am) continuously for 6 weeks.
At the end of the experiment, after rats were anesthetized, blood was taken from the abdominal aorta, allowed to stand for 1 hour, the supernatant was collected by centrifugation at 3000 rmp for 10 min. The serum erythropoietin level was measured according to the kit operating instructions. […] In the measurement, the blank hole was adjusted to zero, and the absorbance (OD value) of each hole was measured in sequence with a wavelength of 450 nm. […]

[4] = system: cisplatin-induced C57BL/6J mice; test: Hepcidin level in cisplatin-induced renal anemia C57BL/6J mice; format: in vivo, mouse; conditions: 60 mg/kg twice/day, 4 weeks, P<0.05
Method: Modeling method: the animals were randomly divided into 5 groups, i.e., normal control group, model group, three treatment groups, wherein the normal control group was injected with equal volume of normal saline, the model group and three treatment groups were intraperitoneally injected with cisplatin (CDDP) 5 mg/kg once a week, for 4 weeks.
The route of administration is intragastrical. TBN is administered twice a day (fixed at 9:00-10:00 am and 3:00-4:00 pm), and Roxadustat is administered once every two days (fixed at 9:00-10:00 am), for 4 weeks.
Hepcidin is a cysteine-rich antibacterial polypeptide synthesized and secreted by the liver. It plays a negative regulatory role in the regulation of iron balance in the body and can be used to indirectly evaluate the symptoms of anemia in mice. […] Cisplatin and other chemotherapeutic drugs can cause iron regulation imbalance in mice, and TBN administration can reduce the expression level of iron regulation in the body, and thus can be used to treat cancer complicated renal anemia.

Cc1nc(C)c(/C=[N+](\[O-])C(C)(C)C)nc1C [TBN]
podocyte fusion (db/db mice; 10 mg/kg): slight podocyte fusion
proliferation of the glomerular membrane (db/db mice; 10 mg/kg): no significant proliferation
thickness of the glomerular base film (db/db mice; 10 mg/kg, 6 weeks (TBN P<0.05; Losartan P<0.01)): decrease
podocyte fusion (db/db mice; 30 mg/kg): podocyte fusion in small area
proliferation of the glomerular measuring membrane (db/db mice; 30 mg/kg): no significant proliferation
thickness of the glomerular base film (db/db mice; 30 mg/kg, P<0.01 vs db/db): significantly reduced
podocyte fusion (db/db mice; 60 mg/kg): no obvious segmental fusion
proliferation of glomerular membranes (db/db mice; 60 mg/kg): no significant proliferation
thickness of the glomerular base film (db/db mice; 60 mg/kg, P<0.01 vs db/db): significantly reduced
renal pathological changes (H&E) (STZ-induced SHR rats [1]): improvement
degree of glomerular hardening (PAS) vs SHR-STZ group (STZ-induced SHR rats [2]): significantly lower
body weight vs SHR-STZ group (STZ-induced SHR rats [3]): increased significantly
serum EPO content (STZ-induced DKD rats; 30 mg/kg and 60 mg/kg, P<0.05): increased EPO content with significant statistical difference
serum EPO content (STZ-induced DKD rats; TBN dose groups (10, 30, 60 mg/kg) vs vehicle, to varying degrees): increased
level of iron regulation (hepcidin) vs model group [4]: significantly reduced
